Tests used:
[1] = target: T1, PSMA overexpressed in prostate cancer cells (Homo sapiens, UniProt Q04609); assay: SPECT/PET imaging in patients with prostate cancer; format: in vivo; details: for detection of tumors and metastases (PET and SPECT image, FIG. 6): same patient with advanced metastatic prostate cancer given both radiopharmaceuticals
T1 construct: detect in vivo PSMA overexpressed in prostate cancer cells; from tissue; host or cells: tumours and metastases in prostate cancer patients (in vivo SPECT/PET)
Excerpt: (§1) This image confirms, and is the main evidence, that because of its increased properties of affinity owing to the lipophilicity of the incorporated HYNIC molecule, ^99mTc-EDDA/HYNIC-iPSMA is able to equal the high imaging sensitivity of the PET radionuclides in the detection of tumoral lesions that overexpress PSMA.

LNCaP tumors = tested on: LNCaP tumors; set-up: species or system mice; details: mouse, in vivo
Excerpt: as §1

[2] = format: in vitro ADME, human
Procedure: (§2) The radiopharmaceutical remains stable with radiochemical purity greater than 95%, 24 h after labeling. In-vitro tests of stability in human serum show binding to serum proteins of 8.3±2.1% and high radiochemical stability (>90%).

[3] = human, in vivo
Excerpt: as §1

[4] = format: physicochemical
Procedure: HYNIC-iPSMA (37.5 μg) was formulated as a lyophilized dosage form containing 10 mg of EDDA, 20 mg of tricine, 20 μg of stannous chloride and 50 mg of mannitol. This formulation, on being reconstituted with 1 mL of 0.2 M phosphate buffer solution, pH 7 and 1 mL of solution of sodium pertechnetate (^99mTcO4Na), obtained in situ from a generator of ^99Mo/^99mTc, produces the compound to be patented ^99mTc-EDDA/HYNIC-iPSMA (FIG. 1) with radiochemical purity greater than 98% determined by reverse-phase HPLC, which has the corresponding radiochromatogram (FIG. 3).
as §2

[5] = target: T2, PSMA protein (LNCaP cells) (Homo sapiens, UniProt Q04609); assay: affinity by studies of competence in PSMA-positive cancer cells (LNCaP); format: binding; details: competition in LNCaP cells
T2 construct: endogenous in cells; host or cells: LNCaP

balb-C laboratory mice = assay: toxicity in balb-C laboratory mice; format: in vivo; details: dose of 40 mg/kg
Excerpt: as §1

T1 sequence (Q04609 whole entry): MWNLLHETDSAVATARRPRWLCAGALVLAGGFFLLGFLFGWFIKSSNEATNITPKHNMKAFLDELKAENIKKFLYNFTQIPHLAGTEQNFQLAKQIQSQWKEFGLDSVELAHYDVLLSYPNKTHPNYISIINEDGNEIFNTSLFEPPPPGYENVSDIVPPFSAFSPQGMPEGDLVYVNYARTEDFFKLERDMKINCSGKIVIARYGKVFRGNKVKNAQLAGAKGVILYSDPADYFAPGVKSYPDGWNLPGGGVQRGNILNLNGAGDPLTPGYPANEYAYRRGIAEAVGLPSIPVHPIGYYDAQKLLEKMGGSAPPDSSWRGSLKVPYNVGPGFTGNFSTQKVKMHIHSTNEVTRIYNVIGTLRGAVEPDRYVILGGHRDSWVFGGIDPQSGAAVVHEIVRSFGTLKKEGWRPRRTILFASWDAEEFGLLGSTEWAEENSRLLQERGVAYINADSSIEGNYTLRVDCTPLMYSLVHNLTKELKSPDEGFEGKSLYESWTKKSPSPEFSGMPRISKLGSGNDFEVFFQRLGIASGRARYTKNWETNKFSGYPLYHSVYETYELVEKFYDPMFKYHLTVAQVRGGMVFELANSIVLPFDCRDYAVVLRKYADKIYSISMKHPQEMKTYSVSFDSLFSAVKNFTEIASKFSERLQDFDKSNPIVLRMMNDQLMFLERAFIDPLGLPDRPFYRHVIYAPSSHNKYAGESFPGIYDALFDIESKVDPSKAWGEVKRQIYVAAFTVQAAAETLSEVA
T2 sequence (Q04609 whole entry): as above

| Compound | ability to detect in vivo overexpressed PSMA (SPECT image, FIG. 5) ([1]; patient with prostate cancer) | detection of tumors and metastases (PET and SPECT image, FIG. 6) [1] | capture in the tumors (LNCaP tumors) | route of elimination (LNCaP tumors) | radiochemical stability in human serum [2] | biokinetics (clearance and organ capture) [3] | mean effective dose [3] | radiochemical purity 24 h after labeling (stability) [4] | IC50 [5] | toxicity or adverse effects (balb-C laboratory mice) |
| --- | --- | --- | --- | --- | --- | --- | --- | --- | --- | --- |
| 99mTc-ethylenediaminediacetic acid/hydrazinonicotinamide-inhibitor of prostate-specific membrane antigen [99mTc-EDDA/HYNIC-iPSMA] | confirming the ability of the radiopharmaceutical to detect in vivo PSMA overexpressed in prostate cancer cells | detect tumors and metastases of prostate cancer with high sensitivity | 8.7±1.3 % ID/g | mainly with elimination by the renal route | > 90% | rapid clearance from the blood with greater capture and renal excretion, lower hepatic capture and high capture in the parathyroid, salivary and lacrimal glands | 4±2 mSv | greater than 95% |  |  |
| O=C([O-])CN1CCN(CC(=O)[O-])CCN(CC(=O)NC[C@H]2CC[C@H](C(=O)N[C@@H](Cc3ccc4ccccc4c3)C(=O)NCCCC[C@H](NC(=O)N[C@@H](CCC(=O)O)C(=O)O)C(=O)O)CC2)CCN(CC(=O)[O-])CC1.[68Ga+3] [68Ga-PSMA-617, reference compound] |  | detect tumors and metastases of prostate cancer with high sensitivity |  |  |  |  |  |  |  |  |
| NNc1ccc(C(=O)N[C@@H](Cc2ccc3ccccc3c2)C(=O)NCCCC[C@H](NC(=O)N[C@@H](CCC(=O)O)C(=O)O)C(=O)O)cn1 [HYNIC-iPSMA, Glu-NH—CO—NH-Lys(β-naphthyl alanine)-HYNIC] |  |  |  |  |  |  |  |  | 2.9 ± 0.7 nM | did not display toxicity or adverse effects |

— patent US11547767B2, “99mTc-EDDA/HYNIC-iPSMA as a radiopharmaceutical for detecting the overexpression of prostate-specific membrane antigen” (INSTITUTO NACIONAL DE INVESTIGACIONES NUCLEARES, priority 2016, dated 2023)
